Drawing on patent US20240122179A1, “AUXINIC HERBICIDES AND METHODS OF USE THEREOF” (CORTEVA AGRISCIENCE LLC, priority 2021, published 2024), this text covers pest or weed control, Volatility and Control/Injury for 20 molecules.

Where two headings read alike, the source gives them in different places.

In data set [1] the test system is Conyza canadensis (L.) (ERICA). Nature of the data set: Postemergence herbicide evaluation, percent reduction in plant size vs untreated control, 21 days after treatment. Format: in vivo, Conyza canadensis (L.) (Horseweed). The following applies: Erigeron canadensis, post-emergence, 504 h, ERICA, postemergence, read-out: Control/Injury; for pest or weed control at 140 g/ha: rate 140 g ae/ha; for pest or weed control at 280 g/ha: rate 280 g ae/ha. A digest of the protocol:
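Track-sprayer applications (187 L/ha, 276 kPa) of 140 or 280 g ae/ha, technical material dissolved in acetone/DMSO then diluted with crop oil and surfactant-containing solvent, to greenhouse Conyza canadensis at 2-8 leaves. After 21 days, size reduction relative to untreated plants was recorded; 3-4 randomized replicates.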

Data set [2] is described as follows: Volatility of compounds measured by thermogravimetric analysis (TGA), rate of weight loss. It counts as physicochemical. The following applies: estimates of volatility. From the text:
Briefly, the rate of weight loss measured in units of […]g/min can be used to determine vapor pressure as shown by the simplified equation: wherein, k is the intrinsic volatility and A is the surface area, Referring now to FIG. 2. A graph of weight loss as function of time for solid samples produces a linear curve; the slope of the curve is the rate of weight loss. When this method is used to measure the volatility of aqueous salt concentrates or liquid concentrates, the water or acetone present in the sample volatilizes before the sample of interest. The first linear loss region of the curve is the loss of water or acetone and the second linear region is characteristic of the sample of interest. In order to illustrate the difference in volatility between some of the compounds disclosed herein and the widely used herbicide dicamba, data from both the compounds and dicamba are presented Table 3 and in FIG. 1.

The test system of the next data set is Amaranthus rudis (AMATA). Nature of the data set: Postemergence herbicide evaluation, percent reduction in plant size vs untreated control, 21 days after treatment. To be noted: Amaranthus tuberculatus, post-emergence, 504 h, AMATA, postemergence, read-out: Control/Injury; for pest or weed control at 140 g/ha: rate 140 g ae/ha; for pest or weed control at 280 g/ha: rate 280 g ae/ha. It counts as in vivo, Amaranthus rudis (tall water hemp). The method, boiled down: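 Growth-reduction values are percent decrease in plant size relative to untreated plants, scored 21 days post-application. Amaranthus rudis (2-8 leaves) received postemergence sprays at 140 or 280 g ae/ha, 187 L/ha, in a mixed acetone/DMSO/water/isopropanol carrier with crop oil concentrate. Greenhouse conditions were 25-28° C, 50-60% RH; 3-4 randomized replicates.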

A further data set has as its system Glycine max. Put plainly: whole plant or invertebrate. To be noted: in vivo. A digest of the protocol:
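Greenhouse soybean (25–28 °C, 16 h light) sprayed post-emergence at 2–8 leaf stage with 140 or 280 g ae/ha in acetone/DMSO-based spray solution with crop oil concentrate, 187 L/ha by track sprayer; 3–4 replicates, randomized blocks. Plant size reduction versus untreated control measured 21 days after treatment.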

Data set [3] has as its system Ambrosia artemisiifolia (AMBEL). Nature of the data set: Postemergence herbicide evaluation, percent reduction in plant size vs untreated control, 21 days after treatment. Format: in vivo, Ambrosia artemisiifolia (common ragweed). The following applies: post-emergence, 504 h, AMBEL, postemergence, read-out: Control/Injury; for pest or weed control at 140 g/ha: rate 140 g ae/ha; for pest or weed control at 280 g/ha: rate 280 g ae/ha. A digest of the protocol: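 Test compounds at 140 or 280 g ae/ha were applied by track sprayer (187 L/ha, spray solution containing acetone/DMSO, isopropanol, crop oil, surfactant) to 2–8 leaf plants, 3–4 replicates. Plants were kept in a greenhouse at 25–28 °C. Size reduction was scored against untreated controls at 21 days.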

The subject of the next data set is Kochia scoparia (KCHSC). The data set is described as above. Format: in vivo. To be noted: Bassia scoparia, post-emergence, 504 h, KCHSC, postemergence, percent reduction vs untreated, 21 days after treatment, read-out: Control/Injury; for pest or weed control at 140 g/ha: rate 140 g ae/ha; for pest or weed control at 280 g/ha: rate 280 g ae/ha. A digest of the protocol: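 Values are percent reduction in plant size against an untreated control, measured 21 days after a single postemergence spray at 140 or 280 g ae/ha (187 L/ha, 276 kPa). Treatments used 3-4 randomized complete-block replicates on 2 to 8 leaf-stage plants kept in a 25-28 °C greenhouse, with compounds in acetone/DMSO-based solvent containing crop oil and surfactant.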

Data set [4] deals with Amaranthus palmeri (AMAPA). Described as above. Format: in vivo, Amaranthus palmeri (Palmer amaranth). To be noted: post-emergence, 504 h, postemergence, read-out: Control/Injury; for pest or weed control at 140 g/ha: rate 140 g ae/ha; for pest or weed control at 280 g/ha: rate 280 g ae/ha. The method, boiled down:
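Percent reduction in plant size relative to untreated plants, measured 21 days after track-sprayer application (187 L/ha) of 140 or 280 g ae/ha to Amaranthus palmeri at the 2 to 8 leaf stage. Randomized complete block, 3 or 4 replicates, greenhouse at 25 to 28° C; spray solution acetone/DMSO with isopropanol, water and crop oil concentrate.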

Where [5] appears, read: percent reduction vs untreated control, 21 days after treatment.
Setting [6] is: percent reduction vs untreated, 21 days after treatment.
The mark [7] stands for this setting: R-AMAPA, percent reduction vs untreated control, 21 days after treatment.

Regarding `COc1c(Cl)ccc(Cl)c1C(=O)O/N=C(\N)C1CCCCC1` [Compound A-6], in data set [1] (setting [5]), the pest or weed control at 140 g/ha stood at 98% and the pest or weed control at 280 g/ha came to 98%. Besides, the Volatility in data set [2] was 0.064 ng/min.

As for `COc1c(Cl)ccc(Cl)c1C(=O)O/N=C(\N)Cc1ccccc1` [Compound A-8], in data set [1] (setting [5]), the pest or weed control at 140 g/ha worked out at 98% and the pest or weed control at 280 g/ha was determined as 99%. Also, the Volatility in data set [2] is listed as 0.189 ng/min.

As for `COc1c(Cl)ccc(Cl)c1C(=O)O/N=C(\N)c1ccccc1Cl` [Compound A-13], the Volatility in data set [2] is given as 0.012 ng/min.

As for `COc1c(Cl)ccc(Cl)c1C(=O)O/N=C(\N)c1ccc(Cl)c(Cl)c1` [Compound A-14], the Volatility in data set [2] was 0.056 ng/min.

Turning to `COc1c(Cl)ccc(Cl)c1C(=O)O/N=C(\N)c1ccc(Cl)cc1Cl` [Compound A-15], in data set [1] (setting [5]), the pest or weed control at 140 g/ha was 98% and the pest or weed control at 280 g/ha came out at 96%. Further, the Volatility in data set [2] is 0.0098 ng/min.

For the molecule `COc1c(Cl)ccc(Cl)c1C(=O)O/N=C(\N)c1ccc(C)cc1` [Compound A-17], in data set [1] (setting [5]), the pest or weed control at 140 g/ha was 94% and the pest or weed control at 280 g/ha came to 95%. For the same molecule, in data set [2], the Volatility is listed as 0.026 ng/min.

Take `COc1ccc(/C(N)=N/OC(=O)c2c(Cl)ccc(Cl)c2OC)cc1` [Compound A-20]: the Volatility in data set [2] is given as 0.04 ng/min.

Turning to `COc1ccccc1/C(N)=N/OC(=O)c1c(Cl)ccc(Cl)c1OC` [Compound A-21], in data set [1] (setting [5]), the pest or weed control at 140 g/ha came out at 95% and the pest or weed control at 280 g/ha was 98%. In addition, in data set [2], the Volatility was 0.074 ng/min.

In the case of `COc1c(Cl)ccc(Cl)c1C(=O)O/N=C(\N)c1ccc2ncccc2c1` [Compound A-25], in data set [1] (setting [5]), the pest or weed control at 140 g/ha was determined as 95% and the pest or weed control at 280 g/ha came out at 90%. Further, the Volatility in data set [2] is listed as 0.021 ng/min.

`COc1c(Cl)ccc(Cl)c1C(=O)O/N=C(\N)c1ccc2ccoc2c1` [Compound A-26]: in data set [1] (setting [5]), the pest or weed control at 140 g/ha was determined as 93% and the pest or weed control at 280 g/ha stood at 93%. Moreover, the Volatility in data set [2] was 0.0034 ng/min.

Turning to `COc1c(Cl)ccc(Cl)c1C(=O)O/N=C(\N)c1ccncc1` [Compound A-33], in data set [1] (setting [5]), the pest or weed control at 140 g/ha amounted to 87% and the pest or weed control at 280 g/ha amounted to 93%. Moreover, the Volatility in data set [2] is on record as 0.015 ng/min.

In the case of `COc1c(Cl)ccc(Cl)c1C(=O)O/N=C(\N)c1ccccn1` [Compound A-34], in data set [1] (setting [5]), the pest or weed control at 140 g/ha came to 87% and the pest or weed control at 280 g/ha came out at 97%. In addition, the Volatility in data set [2] is reported as 0.039 ng/min.

Take `COc1c(Cl)ccc(Cl)c1C(=O)OCc1cccnc1` [Compound A-45]: the Volatility in data set [2] is on record as 0.73 ng/min.

In the case of `COc1c(Cl)ccc(Cl)c1C(=O)OCc1ccc(COC(=O)c2c(Cl)ccc(Cl)c2OC)cc1` [Compound A-56], the Volatility in data set [2] is 0.08 ng/min.

For the molecule `COc1c(Cl)ccc(Cl)c1C(=O)O/N=C(\C)C/C(C)=N/OC(=O)c1c(Cl)ccc(Cl)c1OC` [Compound A-58], the Volatility in data set [2] is recorded as 0.11 ng/min.

As to `COc1c(Cl)ccc(Cl)c1C(=O)Oc1cc(C(F)(F)F)n(C)n1` [Compound A-118], the pest or weed control at 140 g/ha in data set [1] was 93%; in the data set with Amaranthus rudis (AMATA) it was 68%; in data set [3] it was 80%; in the data set with Kochia scoparia (KCHSC) it was 83%; in data set [4] (AMAPA), 63%. The pest or weed control at 280 g/ha in data set [1] came out at 96%; in the data set on Amaranthus rudis (AMATA) it was 80%; in data set [3] it was 97%; with Kochia scoparia (KCHSC) it was 99%; in data set [4] (AMAPA), 73%. For the same molecule, the Control/Injury in the data set with Glycine max is listed as 8.

Take `COc1c(Cl)ccc(Cl)c1C(=O)Oc1nc(-c2ccccc2)cs1` [Compound A-120]: the pest or weed control at 140 g/ha in data set [1] turned out to be 85%; with Amaranthus rudis (AMATA) it was 40%; in data set [3] it was 68%; in the data set with Kochia scoparia (KCHSC), 63%; in data set [4] (AMAPA), 28%. For the same molecule, the pest or weed control at 280 g/ha in data set [1] was found to be 99%; in the data set with Amaranthus rudis (AMATA), 58%; in data set [3], 85%; with Kochia scoparia (KCHSC), 85%; in data set [4] (AMAPA), 45%. Also, in the data set with Glycine max, the Control/Injury is 5.

`COc1c(Cl)ccc(Cl)c1C(=O)O/N=C/c1cccc(/C=N/OC(=O)c2c(Cl)ccc(Cl)c2OC)c1` [Compound A-143]: the pest or weed control at 140 g/ha came out at 80% in data set [1] (setting [6]); 73% in the data set with Amaranthus rudis (AMATA); 86% in data set [3]; 88% in the data set on Kochia scoparia (KCHSC); 70% in data set [4] (setting [7]). Moreover, the pest or weed control at 280 g/ha in data set [1] (setting [6]) stood at 93%; with Amaranthus rudis (AMATA) it was 48%; in data set [3], 86%; in the data set on Kochia scoparia (KCHSC), 88%; in data set [4] (setting [7]) it was 64%. Besides, in the data set on Glycine max, the Control/Injury was 0.

On to `COc1c(Cl)ccc(Cl)c1C(=O)O/N=C(\N)CCC/C(N)=N/OC(=O)c1c(Cl)ccc(Cl)c1OC` [Compound A-144], for which the pest or weed control at 140 g/ha stood at 83% in data set [1] (setting [6]); 71% with Amaranthus rudis (AMATA); 88% in data set [3]; 89% with Kochia scoparia (KCHSC); 59% in data set [4] (setting [7]). Moreover, the pest or weed control at 280 g/ha was 75% in data set [1] (setting [6]); 77% in the data set with Amaranthus rudis (AMATA); 88% in data set [3]; 99% in the data set with Kochia scoparia (KCHSC); 71% in data set [4] (setting [7]). In addition, in the data set with Glycine max, the Control/Injury was 0.

Take `COc1c(Cl)ccc(Cl)c1C(=O)O/N=C(\N)CCCCC/C(N)=N/OC(=O)c1c(Cl)ccc(Cl)c1OC` [Compound A-146]: the pest or weed control at 140 g/ha amounted to 73% in data set [1] (setting [6]); 70% in the data set with Amaranthus rudis (AMATA); 83% in data set [3]; 89% with Kochia scoparia (KCHSC); 43% in data set [4] (setting [7]). The pest or weed control at 280 g/ha is 63% in data set [1] (setting [6]); 63% in the data set on Amaranthus rudis (AMATA); 86% in data set [3]; 96% in the data set on Kochia scoparia (KCHSC); 60% in data set [4] (setting [7]). This molecule displayed a Control/Injury in the data set on Glycine max of 0.
